In US9440969B2, “Compounds and methods for kinase modulation, and indications therefor” (PLEXXIKON INC., priority 2009, dated 2016) one finds IC50 data, which are given here for 20 molecules.

The test system of experiment [1] is COLO205 colon adenocarcinoma (B-Raf V600E mutation). Kind of experiment: COLO205 cell growth inhibition (ATPlite luminescence). In kind it is cell-based. The following applies: Homo sapiens, COLO 205, 72 h, COLO205 cells, incubated 3 days with compound. The essentials:
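Cells seeded at 6×10^4 cells/mL in line-specific medium with 10% FBS, held overnight at 37°C, then given an 8-point 1:3 compound titration (top 10 μM final) for 3 days at 37°C, 5% CO2. ATP content read by ATPlite luminescence as a cell-number proxy; IC50 fitted from luminescence versus concentration.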
A general note: Cellular ATP, detected with luciferase, serves as a proxy for viable cell number.

Experiment [2] concerns the target CYP2C9 (Homo sapiens, UniProt P11712). Briefly: CYP2C9 inhibition (fluorescent substrate MFC). Particulars: read-out: Cyp IC50 (μM) 2C9. The format is in vitro ADME. As for the experimental part:
CYP (Cytochrome P450) enzymes are the major drug metabolizing enzymes present in the liver. The inhibition of CYP enzyme activity (IC50) for each of CYP1A2, CYP2C19, CYP2C9, CYP2D6, CYP3A4(BFC) and CYP3A4(BQ) is determined for compounds, where inhibition of metabolism of a known substrate leads to a decrease in the fluorescence of the metabolized product. The fluorescence of the product is monitored as a function of compound concentration. Compounds are dissolved in dimethyl sulfoxide to a concentration of 100 mM. These are diluted […], into 82 μL of acetonitrile. An 11 μL aliquot of this solution is then added to 204 μL of cofactor mix (1.3% NADPH Regeneration system Solution A, 1.04% NADPH Regeneration system Solution B from BD Biosciences, 5% acetonitrile and 0.05% dimethyl sulfoxide). These are then serially diluted 1:1 (160 μL to 160 μL co-factor mix) for a total of 10 points. A 10 μL aliquot of this final mixture is dispensed into 384 well assay plates and incubated for 10 minutes at 37° C. Enzyme and substrate mix (10 μL; 0.5 pmol CYP1A2/5 μM CEC; 1.0 pmol CYP2C9/75 μM MFC; 0.5 pmol CYP2C19/25 μM CEC; 1.5 pmol CYP2D6/1.5 μM AMMC; 1.0 pmol CYP3A4/50 μM BFC; or 1.0 pmol CYP3A4/40 μM BQ) is added to these assay plates. Assay plates are incubated at 37° C. (CYP1A2-15 min; CYP2C9-45 min; CYP2C19, 2D6 and 3A4-30 min) and read in a Tecan Safire 2 plate reader (CYP1A2, 2C19 and 3A4 409 ex/460 em; CYP2C9 and 2D6 409 ex/530 em). The signal versus compound concentration is used to determine the IC50. The enzymes and substrates for this assay are obtained from BD Biosciences.

Bounds are passed on as bounds.

Chain of CYP2C9 (P11712 whole entry): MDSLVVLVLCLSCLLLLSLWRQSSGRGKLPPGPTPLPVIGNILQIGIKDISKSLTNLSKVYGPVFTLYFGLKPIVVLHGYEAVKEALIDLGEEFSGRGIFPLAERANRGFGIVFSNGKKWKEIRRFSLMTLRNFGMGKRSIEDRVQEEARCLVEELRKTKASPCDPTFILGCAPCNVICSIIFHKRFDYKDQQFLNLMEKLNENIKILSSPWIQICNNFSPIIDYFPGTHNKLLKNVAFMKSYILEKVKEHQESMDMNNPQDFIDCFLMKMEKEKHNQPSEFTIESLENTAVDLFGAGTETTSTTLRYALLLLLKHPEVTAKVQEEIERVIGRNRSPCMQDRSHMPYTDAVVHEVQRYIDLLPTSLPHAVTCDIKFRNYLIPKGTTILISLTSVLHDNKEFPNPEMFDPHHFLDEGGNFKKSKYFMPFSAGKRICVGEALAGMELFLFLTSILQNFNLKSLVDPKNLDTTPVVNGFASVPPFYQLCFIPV

For `CCCS(=O)(=O)Nc1ccc(F)c(C(=O)c2c[nH]c3ncc(-c4ccc5[nH]ncc5c4)cc23)c1F` [P-0001, propane-1-sulfonic acid {2,4-difluoro-3-[5-(1H-indazol-5-yl)-1H-pyrrolo[2,3-b]pyridine-3-carbonyl]-phenyl}-amide], the values for the half-maximal inhibitory concentration (IC50) in experiment [1] and in experiment [2] were below 1 µM and below 5 µM, respectively.

As for `O=C(c1c(F)ccc(NS(=O)(=O)c2cc(F)ccc2F)c1F)c1c[nH]c2ncc(-c3ccc4[nH]ncc4c3)cc12` [P-0002, N-{2,4-Difluoro-3-[5-(1H-indazol-5-yl)-1H-pyrrolo[2,3-b]pyridine-3-carbonyl]-phenyl}-2,5-difluoro-benzenesulfonamide], the IC50 (as a rule, the midpoint of a concentration-inhibition curve) in experiment [1] was below 1 µM; in experiment [2] it was below 5 µM.

For the molecule `CNC(=O)n1ncc2cc(-c3cnc4[nH]cc(C(=O)c5c(F)ccc(NS(=O)(=O)c6cc(F)ccc6F)c5F)c4c3)ccc21` [P-0003, 5-{3-[3-(2,5-Difluoro-benzenesulfonylamino)-2,6-difluoro-benzoyl]-1H-pyrrolo[2,3-b]pyridin-5-yl}-indazole-1-carboxylic acid methylamide], the IC50 was below 1 µM in experiment [1] and below 5 µM in experiment [2].

For the molecule `CC(=O)n1cc(C(=O)c2c(F)ccc(NS(=O)(=O)c3cc(F)ccc3F)c2F)c2cc(-c3ccc4c(cnn4C(C)=O)c3)cnc21` [P-0004, N-{3-[1-Acetyl-5-(1-acetyl-1H-indazol-5-yl)-1H-pyrrolo[2,3-b]pyridine-3-carbonyl]-2,4-difluoro-phenyl}-2,5-difluoro-benzenesulfonamide], the IC50 is below 1 µM in experiment [1] and below 5 µM in experiment [2].

`CC(=O)n1ncc2cc(-c3cnc4[nH]cc(C(=O)c5c(F)ccc(NS(=O)(=O)c6cc(F)ccc6F)c5F)c4c3)ccc21` [P-0005, N-{3-[5-(1-Acetyl-1H-indazol-5-yl)-1H-pyrrolo[2,3-b]pyridine-3-carbonyl]-2,4-difluoro-phenyl}-2,5-difluoro-benzenesulfonamide]: the IC50 in experiment [1] is below 1 µM; in experiment [2], below 5 µM.

As to `CC(=O)N(c1ccc(F)c(C(=O)c2cn(C(C)=O)c3ncc(-c4ccc5c(cnn5C(C)=O)c4)cc23)c1F)S(=O)(=O)c1cc(F)ccc1F` [P-0006, N-Acetyl-N-{3-[1-acetyl-5-(1-acetyl-1H-indazol-5-yl)-1H-pyrrolo[2,3-b]pyridine-3-carbonyl]-2,4-difluoro-phenyl}-2,5-difluoro-benzenesulfonamide], the IC50 in experiment [1] was below 1 µM; in experiment [2], below 5 µM.

For the molecule `CCCS(=O)(=O)Nc1ccc(F)c(C(=O)c2c[nH]c3ncc(-c4ccc5c(cnn5C(C)=O)c4)cc23)c1F` [P-0007, propane-1-sulfonic acid {3-[5-(1-acetyl-1H-indazol-5-yl)-1H-pyrrolo[2,3-b]pyridine-3-carbonyl]-2,4-difluoro-phenyl}-amide], the values for the IC50 in experiment [1] and in experiment [2] were below 1 µM and below 5 µM, respectively.

In the case of `CCCS(=O)(=O)Nc1ccc(F)c(C(=O)c2c[nH]c3ncc(-c4ccc5nn(C)cc5c4)cc23)c1F` [P-0010, Propane-1-sulfonic acid {2,4-difluoro-3-[5-(2-methyl-2H-indazol-5-yl)-1H-pyrrolo[2,3-b]pyridine-3-carbonyl]-phenyl}-amide], the half-maximal inhibitory concentration (IC50) is below 1 µM in experiment [1] and above 10 µM in experiment [2].

Consider `CCCS(=O)(=O)Nc1ccc(F)c(C(=O)c2c[nH]c3ncc(-c4ccc5cn(C)nc5c4)cc23)c1F` [P-0011, Propane-1-sulfonic acid {2,4-difluoro-3-[5-(2-methyl-2H-indazol-6-yl)-1H-pyrrolo[2,3-b]pyridine-3-carbonyl]-phenyl}-amide], for which the IC50 is below 1 µM in experiment [1] and 5 to 10 µM in experiment [2].

Regarding `CCCS(=O)(=O)Nc1ccc(F)c(C(=O)c2c[nH]c3ncc(-c4ccc5[nH]ccc5c4)cc23)c1F` [P-0012, Propane-1-sulfonic acid {2,4-difluoro-3-[5-(1H-indol-5-yl)-1H-pyrrolo[2,3-b]pyridine-3-carbonyl]-phenyl}-amide], the IC50 in experiment [1] was below 1 µM; in experiment [2], 5 to 10 µM.

In the case of `CCCS(=O)(=O)Nc1ccc(F)c(C(=O)c2c[nH]c3ncc(-c4cccc5nn(C)cc45)cc23)c1F` [P-0015, Propane-1-sulfonic acid {2,4-difluoro-3-[5-(2-methyl-2H-indazol-4-yl)-1H-pyrrolo[2,3-b]pyridine-3-carbonyl]-phenyl}-amide], the IC50 in experiment [1] is below 1 µM; in experiment [2], 5 to 10 µM.

Turning to `CCCS(=O)(=O)Nc1ccc(F)c(C(=O)c2c[nH]c3ncc(-c4ccc5c(cnn5S(C)(=O)=O)c4)cc23)c1F` [P-0016, propane-1-sulfonic acid {2,4-difluoro-3-[5-(1-methanesulfonyl-1H-indazol-5-yl)-1H-pyrrolo[2,3-b]pyridine-3-carbonyl]-phenyl}-amide], the IC50 in experiment [1] is below 1 µM; in experiment [2], above 10 µM.

As for `CCCS(=O)(=O)Nc1ccc(F)c(C(=O)c2c[nH]c3ncc(-c4ccc5ncsc5c4)cc23)c1F` [P-0020, Propane-1-sulfonic acid [3-(5-benzothiazol-6-yl-1H-pyrrolo[2,3-b]pyridine-3-carbonyl)-2,4-difluoro-phenyl]-amide], the IC50 in experiment [1] was below 1 µM; in experiment [2], above 10 µM.

With `CCCS(=O)(=O)Nc1ccc(F)c(C(=O)c2c[nH]c3ncc(-c4ccc5[nH]cc(C)c5c4)cc23)c1F` [P-0023, Propane-1-sulfonic acid {2,4-difluoro-3-[5-(3-methyl-1H-indol-5-yl)-1H-pyrrolo[2,3-b]pyridine-3-carbonyl]-phenyl}-amide], the IC50 is below 1 µM in experiment [1] and above 10 µM in experiment [2].

For `CCCS(=O)(=O)Nc1ccc(F)c(C(=O)c2c[nH]c3ncc(-c4ccc5cncnc5c4)cc23)c1F` [P-0025, Propane-1-sulfonic acid [2,4-difluoro-3-(5-quinazolin-7-yl-1H-pyrrolo[2,3-b]pyridine-3-carbonyl)-phenyl]-amide], the results for the IC50 in experiment [1] and in experiment [2] were below 1 µM and 5 to 10 µM, respectively.

For `CCCS(=O)(=O)Nc1ccc(F)c(C(=O)c2c[nH]c3ncc(-c4cnn(C5CCNCC5)c4)cc23)c1F` [P-1002, Propane-1-sulfonic acid {2,4-difluoro-3-[5-(1-piperidin-4-yl-1H-pyrazol-4-yl)-1H-pyrrolo[2,3-b]pyridine-3-carbonyl]-phenyl}-amide], the results for the IC50 in experiment [1] and in experiment [2] were below 1 µM and above 10 µM, respectively.

Turning to `O=C(c1c(F)ccc(NS(=O)(=O)c2ccc(C(F)(F)F)cc2)c1F)c1c[nH]c2ncc(-c3cnn(C4CCNCC4)c3)cc12` [P-1004, N-{2,4-Difluoro-3-[5-(1-piperidin-4-yl-1H-pyrazol-4-yl)-1H-pyrrolo[2,3-b]pyridine-3-carbonyl]-phenyl}-4-trifluoromethyl-benzenesulfonamide], the results for the IC50 in experiment [1] and in experiment [2] were above 1 µM and above 10 µM, respectively.

On to `CCCS(=O)(=O)Nc1ccc(F)c(C(=O)c2c[nH]c3ncc(-c4csc(-n5ccnc5C)n4)cc23)c1F` [P-1101, Propane-1-sulfonic acid (2,4-difluoro-3-{5-[2-(2-methyl-imidazol-1-yl)-thiazol-4-yl]-1H-pyrrolo[2,3-b]pyridine-3-carbonyl}-phenyl)-amide], for which the IC50 was below 1 µM in experiment [1] and below 5 µM in experiment [2].

For the molecule `Cc1ccc(-c2cnc3[nH]cc(C(=O)c4c(F)ccc(NS(=O)(=O)c5cc(F)ccc5F)c4F)c3c2)cn1` [P-1408, N-{2,4-Difluoro-3-[5-(6-methyl-pyridin-3-yl)-1H-pyrrolo[2,3-b]pyridine-3-carbonyl]-phenyl}-2,5-difluoro-benzenesulfonamide], the IC50 in experiment [2] was in the range of 5 to 10 µM.

On to `Cc1ncc(-c2cnc3[nH]cc(C(=O)c4c(F)ccc(NS(=O)(=O)c5cc(F)ccc5F)c4F)c3c2)cn1` [P-1503, N-{2,4-Difluoro-3-[5-(2-methyl-pyrimidin-5-yl)-1H-pyrrolo[2,3-b]pyridine-3-carbonyl]-phenyl}-2,5-difluoro-benzenesulfonamide], for which, in experiment [2], the IC50 is above 10 µM.
